Assays:
[1] = tested on: capsaicin-evoked bronchospasm; test: Capsaicin-evoked bronchospasm in anesthetized guinea pigs; assay type: in vivo, guinea pig; conditions: for reversal of anandamide's inhibition of capsaicin-evoked bronchospasm: antagonist given with anandamide, SR141716A 0.5 mg per kg i.v., SR144528 0.3 mg per kg i.v. (maximal dose); for intrinsic effect on capsaicin-evoked bronchoconstriction: capsaicin via tracheal catheter or i.v., antagonist i.v.; for effect on capsaicin-evoked bronchospasm: administered systemically before capsaicin
[2] = tested on: bronchial smooth muscle; test: Direct bronchomotor action in anesthetized animals with intact vagus; assay type: in vivo, guinea pig
[3] = tested on: bronchial smooth muscle; test: Bronchoconstriction in vagotomized, atropine-treated guinea pigs; assay type: in vivo, guinea pig; conditions: for effect on anandamide bronchoconstriction in vivo: antagonist before anandamide; for bronchial muscle constriction, % of maximal bronchospasm: tracheal administration, n=6
[4] = tested on: guinea pig lung parenchyma strips; test: Isolated lung strips, muscle contraction; conditions: for effect on anandamide bronchoconstriction in vitro: SR141716A 1 μM, lung strips
Protocol: Guinea pig parenchimal strips were prepared essentially as described in Samhoun, M. N., et al. (1984) Prostaglandins, 27, 711-724. The strips were placed in 10-ml organ baths containing Krebs' buffer (in mM: NaCl, 118; KCl, 4; K2HPO4, 1.2; MgSO4, 1.2; CaCl2, 2.5; NaHCO3, 25.0; glucose, 11.2; supplemented with […] atropine sulfate and […] indomethacin) at 37° C. and aerated with an oxygen/carbon dioxide mixture (95/5%). Muscle contractions were recorded with an isometric force transducer (U. Basile) and expressed in dyne per mg of fresh tissue.

[5] = tested on: capsaicin-evoked cough; conditions: guinea pig, in vivo
[6] = tested on: capsaicin-evoked bronchospasm; test: Capsaicin-evoked bronchospasm in anesthetized rats; assay type: in vivo, rat; conditions: n=3
[7] = tested on: bronchial smooth muscle; test: Bronchoconstriction in vagotomized, atropine-treated rats; assay type: in vivo, rat; conditions: after vagotomy and atropine, n=3
[8] = capsazepine 0.2 mg per kg, i.v.

## Cc1c(C(=O)NN2CCCCC2)nn(-c2ccc(Cl)cc2Cl)c1-c1ccc(Cl)cc1 [SR141716A]
[1]
  reversal of anandamide's inhibition of capsaicin-evoked bronchospasm: completely reversed
  intrinsic effect on capsaicin-evoked bronchoconstriction: significantly enhanced
[1]; capsaicin i.v. after SR141716A 0.5 mg per kg i.v., P<0.05, n=3
  bronchospasm, % of maximal bronchospasm: 92.3±3.4%
[2]; antagonist alone, without capsaicin, guinea pigs
  bronchomotor consequences per se: no bronchomotor consequences per se
[3]
  effect on anandamide bronchoconstriction in vivo: blocked
[4]
  effect on anandamide bronchoconstriction in vitro: blocked
[5]; iv
  effect of CB1 receptor blockade on anandamide's reduction of capsaicin-evoked cough: abrogated
  intrinsic effect on capsaicin-evoked coughing: significantly enhanced

## SR144528
[1]
  reversal of anandamide's inhibition of capsaicin-evoked bronchospasm: only slightly reduced
  intrinsic effect on capsaicin-evoked bronchoconstriction: had no such effects
[3]
  effect on anandamide bronchoconstriction in vivo: had no such effect
[4]
  effect on anandamide bronchoconstriction in vitro: had no such effect
[5]; iv
  intrinsic effect on capsaicin-evoked coughing: had no such effects

## CCCCCCC(C)(C)c1cc(O)c2c(c1)OC(C)(C)[C@@H]1CC=C(CO)C[C@@H]21 [HU210]
[3]; 0.1 mg per animal
  bronchial muscle constriction, % of maximal bronchospasm: 10.0±0.6%
[3]; 1 mg per animal
  bronchial muscle constriction, % of maximal bronchospasm: 30±1.2%
[3]; 10 mg per animal
  bronchial muscle constriction, % of maximal bronchospasm: 60±2.2%
[3]; 30 mg per animal
  bronchial muscle constriction, % of maximal bronchospasm: 100%

## Oc1cc2c(cc1O)CN(C(=S)NCCc1ccc(Cl)cc1)CCC2 [capsazepine]
[1]; [8]
  effect on the capsaicin response (bronchospasm): completely prevented
[3]; [8]
  effect on anandamide-evoked bronchospasm: had no effect

## CCCCCCCCCCCCCCCC(=O)NCCO [Palmitylethanolamide]
[1]
  effect on capsaicin-evoked bronchospasm: ineffective

## CCCCC/C=C\C/C=C\C/C=C\C/C=C\CCCC(=O)NCCO [anandamide, arachidonylethanolamide]
[1]
  effect on capsaicin-evoked bronchospasm: abrogated
[6]; capsaicin intratracheal after anandamide 1 mg per kg i.v.
  bronchospasm, % of maximal bronchospasm: 14±7%
[2]; 5 mg per kg (highest dose tested), mean±s.e.m., n=5
  bronchoconstriction, % of maximal: 11.8±5.9%
[2]; doses below the highest dose tested (5 mg per kg), species not given
  direct bronchomotor action: no direct bronchomotor action
[3]; systemic application, guinea pigs
  bronchomotor effect after vagotomy and atropine: dose-dependent bronchoconstriction
[7]; 1 mg per kg i.v.
  bronchoconstriction, % of maximal bronchospasm: 0±0%
[7]; 3 mg per kg i.v.
  bronchoconstriction, % of maximal bronchospasm: 12±1.7%
[7]; 5 mg per kg i.v.
  bronchoconstriction, % of maximal bronchospasm: 18.3±1.2%
[4]; anandamide 50 μM alone, n=6
  contraction of isolated lung strips: 0.336±0.07 dyne/mg of tissue
[5]
  visual signs of cannabinoid intoxication: not accompanied by any visual signs of cannabinoid intoxication

## COc1cc(CNC(=O)CCCC/C=C/C(C)C)ccc1O [capsaicin]
[1]; capsaicin alone, i.v., n=3
  bronchospasm, % of maximal bronchospasm: 55.3±8.2%
[6]; capsaicin 30 mg per animal, intratracheal
  bronchospasm, % of maximal bronchospasm: 55±12%
[6]; capsaicin 100 mg per animal, intratracheal
  bronchospasm, % of maximal bronchospasm: 81±19%
[6]; capsaicin intratracheal alone (anandamide experiment)
  bronchospasm, % of maximal bronchospasm: 37.2±4.2%
[6]; capsaicin, intratracheal, mean±s.e.m.
  bronchospasm, % of maximal bronchospasm: 41±6%

## CCCCC/C=C\C/C=C\C/C=C\C/C=C\CCCC(=O)Nc1ccc(O)cc1 [N-(4-hydroxyphenyl)-arachidonamide]
[4]; anandamide 50 μM plus N-(4-hydroxyphenyl)-arachidonamide 28 μM, P<0.05, n=6
  anandamide-evoked contraction of isolated lung strips: 0.638±0.06 dyne/mg of tissue
